Reference: patent US20250290915A1, “METHOD FOR PREDICTING RESPONSIVENESS TO THERAPY” (CANCERTAIN LIMITED, priority 2022, published 2025)

Legend:
Assay type in all cases: cell-based, human
[1] = test system: Circulating Tumour Cells (CTCs, EpCam+CD45−) from a patient with stage II synovial sarcoma; assay: Drug response score assay (RealTime-Glo MT / CellTox Green, PCL scaffold) on CTCs from blood, Example 1; parameters: key to Drug response score, conc. 1 / Drug response score, conc. 2 / Drug response score, conc. 3 / Drug response score, conc. 4: normalized drug response metric per Gupta et al. 2020; details: for Drug response score, conc. 1: conc. 1: Doxo 10 ng/ml, Ifos 0.125 μg/ml, Gemcit 2 μg/ml, Doce 0.02 μg/ml, Carbo 2 μg/ml, Dacarb 1.5 μg/ml, re-dosed at 48 h; for Drug response score, conc. 1 / Drug response score, conc. 2 / Drug response score, conc. 3 / Drug response score, conc. 4: CTCs, t96h; for Drug response score, conc. 2: conc. 2: Doxo 30 ng/ml, Ifos 0.25 μg/ml, Gemcit 10 μg/ml, Doce 0.2 μg/ml, Carbo 5 μg/ml, Dacarb 3 μg/ml; for Drug response score, conc. 3: conc. 3: Doxo 90 ng/ml, Ifos 5 μg/ml, Gemcit 20 μg/ml, Doce 2 μg/ml, Carbo 10 μg/ml, Dacarb 6 μg/ml; for Drug response score, conc. 4: conc. 4: Doxo 270 ng/ml, Ifos 10 μg/ml, Gemcit 40 μg/ml, Doce 10 μg/ml, Carbo 20 μg/ml, Dacarb 12 μg/ml; for Drug sensitivity as calculated by the assay (interpretation of Drug Response Scores): Table 5
Description: (§1) CD45^+ cells and circulating tumour cells (CTCs) were isolated from a blood sample provided by each subject.
(§2) CD45 separation was performed by adding human CD45 microbeads (50 μl/ml blood), incubating for 15 minutes at 4° C. and then processing using an AutoMACS machine. This separates the blood sample into CD45^+ and CD45^−cells in 2 separate falcons. The falcon tubes are then centrifuged at 1200 rpm for 5 minutes.
(§3) The supernatant was removed from the CD45^−falcon tube, and the CD45^−cells contacted with 100 μl of FcR block and 100 μl of CD326 (EpCAM) MicroBeads, followed by incubation at […] 4° C. for 30 minutes. The CD45^−cells were then processed using an AutoMACS machine to separate the EpCAM positive and negative cells into 2 separate falcon tubes. The EpCAM-cells were discarded. The supernatant was removed from the EpCAM^+ cells, and the cells resuspended in DMEM with 2 μl Cell Tox, 2 μl MT and 2 μl MT. 20 μl of the resuspended pellet was then added to all sample wells excluding a blank. After all wells are added to, a cell count was conducted on the […] to determine the number of circulating tumour cells (CTCs).
(§4) The different cell types were each divided equally into populations, depending on the number of drugs/concentrations to be tested and plated on a cell-culture plate pre-coated with a scaffold of polycaprolactone (PCL) electrospun fibres and incubated at 37° C., 5% CO2, for 5 to (typically 10) minutes to facilitate cell attachment. After attachment, an initial imaging step was carried out using the RealTime-Glo™ MT assay from Promega (Catalogue No. G9711)) and the CellTox™ Green Cytotoxicity Assay (Promega, Catalogue No. G8741), carried out according to manufacturer's instructions. Following this initial imagining, the immunotherapeutic and/or chemotherapeutic agents were added to the cell populations as indicated below. After 10 minutes, the imagining step was repeated. The cell populations were then incubated at 37° C., 5% CO2 for 48 hours. The imaging step was then repeated. The cell populations were then re-dosed with the same immunotherapeutic and/or chemotherapeutic agents as indicated below, and incubated at 37° C., 5% CO2 for a further 48 hours. After this second 48 hour incubation, the imagining step was repeated for a final time.
(§5) At the end of this culture period, dose response scores were calculated using a normalized drug response metric as described in Gupta et al. (Communications Biology volume 3, Article number: 42 (2020), https://doi.org/10.1038/s42003-020-0765-z). The start readout for a given immunotherapeutic or chemotherapeutic agent at a given concentration was the to readout for said immunotherapeutic or chemotherapeutic agent at a specified concentration. The end readout for a given immunotherapeutic or chemotherapeutic agent at a given concentration was the final timepoint reading (t96h) for said immunotherapeutic or chemotherapeutic agent at a specified concentration.
(§6) The positive control start readout for a given drug/concentration was the to readout for the corresponding drug at a specified concentration. The positive control end readout for the corresponding drug at a specified concentration was the final timepoint reading (t96h) for the corresponding blank well.
(§7) The negative control start and end readouts for a given immunotherapeutic or chemotherapeutic agent at a given concentration were the to and final timepoint reading (t96h) respectively for blank cell or blank immuno cell well respectively.
The sensitivity or resistance of a subject's cancer to a given immunotherapeutic or chemotherapeutic agent was determined based on the calculated drug response score as shown in Table 2.
Blood samples from a patient with stage II synovial sarcoma (suspected spindle cell tumour) were received and tested using a 6 drug panel.
Chemotherapeutic agents were tested as in Table 3.

[2] = test system: Circulating Tumour Cells (CTCs) from a patient with head and neck cancer (squamous cell carcinoma); assay: Drug response score assay on CTCs from blood, Example 6; details: for Drug response score, conc. 1: conc. 1: Ifos 0.125 μg/ml, Gemcit 2 μg/ml, Doxo 10 ng/ml, Etop 1 μg/ml, Metho 0.5 μg/ml, Capecit 200 μg/ml, Vinor 20 μg/ml; for Drug response score, conc. 1 / Drug response score, conc. 2 / Drug response score, conc. 3 / Drug response score, conc. 4: CTCs, t96h; for Drug response score, conc. 2: conc. 2: Ifos 0.25 μg/ml, Gemcit 10 μg/ml, Doxo 30 ng/ml, Etop 4 μg/ml, Metho 1 μg/ml, Capecit 300 μg/ml, Vinor 40 μg/ml; for Drug response score, conc. 3: conc. 3: Ifos 5 μg/ml, Gemcit 20 μg/ml, Doxo 90 ng/ml, Etop 20 μg/ml, Metho 2 μg/ml, Capecit 400 μg/ml, Vinor 80 μg/ml; for Drug response score, conc. 4: conc. 4: Ifos 10 μg/ml, Gemcit 40 μg/ml, Doxo 270 ng/ml, Etop 100 μg/ml, Metho 4 μg/ml, Capecit 600 μg/ml, Vinor 200 μg/ml; for effectiveness on Circulating Tumour Cells under laboratory conditions / Drug sensitivity as calculated by the assay (interpretation of Drug Response Scores): head and neck cancer CTCs; for Drug sensitivity as calculated by the assay (interpretation of Drug Response Scores): Table 20
Summary of the method: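 EpCAM+ CTCs isolated after CD45 depletion were plated on PCL electrospun fibre scaffolds and read by RealTime-Glo MT and CellTox Green imaging before and 10 min after drug addition, at 48 h, then re-dosed and read at 96 h. Normalized drug response scores derived per Gupta et al. from start and t96h readouts against blank-well controls.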

[3] = test system: Circulating Tumour Cells (CTCs) from a patient with renal cancer; assay: Drug response score assay on CTCs (with CD45+ cells for immunotherapy) from blood, Example 7; parameters: key to Drug response score, conc. 1 / Drug response score, conc. 2 / Drug response score, conc. 3 / Drug response score, conc. 4: normalized drug response metric per Gupta et al. 2020; details: for Drug response score, conc. 1: conc. 1: Pembr 20 μg/ml (CTCs + CD45+ cells), Docetax 0.02 μg/ml, Gemcit 2 μg/ml, Topo 5 μg/ml, Etop 1 μg/ml, Eribul 5 μg/ml (CTCs); for Drug response score, conc. 1 / Drug response score, conc. 2 / Drug response score, conc. 3 / Drug response score, conc. 4: t96h; for Drug response score, conc. 2: conc. 2: Pembr 40 μg/ml (CTCs + CD45+ cells), Docetax 0.2 μg/ml, Gemcit 10 μg/ml, Topo 10 μg/ml, Etop 4 μg/ml, Eribul 10 μg/ml (CTCs); for Drug response score, conc. 3: conc. 3: Pembr 100 μg/ml (CTCs + CD45+ cells), Docetax 2 μg/ml, Gemcit 20 μg/ml, Topo 50 μg/ml, Etop 20 μg/ml, Eribul 20 μg/ml (CTCs); for Drug response score, conc. 4: conc. 4: Pembr 160 μg/ml (CTCs + CD45+ cells), Docetax 10 μg/ml, Gemcit 40 μg/ml, Topo 100 μg/ml, Etop 100 μg/ml, Eribul 40 μg/ml (CTCs); for Drug sensitivity as calculated by the assay (interpretation of Drug Response Scores): Table 23
Description: as §1, §2
(§8) The supernatant was removed from the CD45^+falcon tube, and the cells resuspended in DMEM with 2 μl Cell Tox, 2 μl MT and 2 μl MT. 20 μl of the resuspended CD45^+ cells was then plated in each well which will contain an immunotherapy treatment.
as §3, §4, §5, §6, §7
(§9) The sensitivity or resistance of a subject's cancer to a given immunotherapeutic or chemotherapeutic agent was determined based on the calculated drug response score as shown in Table 2. […]

[4] = test system: Circulating tumour cells (CTCs) from a patient with GI cancer (Cholangio Carcinoma, stage 4); assay: Drug response score assay on blood sample, Example 9; parameters: key to Drug response score from blood sample, conc. 1 / Drug response score from blood sample, conc. 2 / Drug response score from blood sample, conc. 3 / Drug response score from blood sample, conc. 4: normalized drug response metric per Gupta et al. 2020
Description: as §1, §2, §8, §3, §4, §5, §6, §7, §9

| SMILES | Drug response score, conc. 1 [1] | Drug response score, conc. 2 [1] | Drug response score, conc. 3 [1] | Drug response score, conc. 4 [1] | Drug sensitivity as calculated by the assay (interpretation of Drug Response Scores) ([1]; synovial sarcoma CTCs) | Drug response score, conc. 1 [2] | Drug response score, conc. 2 [2] | Drug response score, conc. 3 [2] | Drug response score, conc. 4 [2] | effectiveness on Circulating Tumour Cells under laboratory conditions [2] | Drug sensitivity as calculated by the assay (interpretation of Drug Response Scores) [2] | Drug response score, conc. 1 [3] | Drug response score, conc. 2 [3] | Drug response score, conc. 3 [3] | Drug response score, conc. 4 [3] | Drug sensitivity as calculated by the assay (interpretation of Drug Response Scores) ([3]; renal cancer CTCs) | other results |
| --- | --- | --- | --- | --- | --- | --- | --- | --- | --- | --- | --- | --- | --- | --- | --- | --- | --- |
| COc1cccc2c1C(=O)c1c(O)c3c(c(O)c1C2=O)C[C@@](O)(C(=O)CO)C[C@@H]3O[C@H]1C[C@H](N)[C@H](O)[C@H](C)O1 [Doxorubicin] | 0.9432 | 0.7234 | 0.8842 | 0.8405 | Sensitive (S+) | 0.7699 | 0.9452 | 0.6229 | 0.7995 | Sensitive S+ | Sensitive (S+) |  |  |  |  |  | effectiveness on Circulating Tumour Cells under laboratory conditions ([1]; synovial sarcoma CTCs): marginally less effective compared to other drugs |
| O=P1(NCCCl)OCCCN1CCCl (centres unmarked) [Ifosfamide] | 0.7534 | 0.6369 | 0.7555 | 0.5976 | Sensitive (S+) | 0.7257 | 0.2439 | 0.9228 | 0.3682 | Sensitive S+ | Sensitive (S+) |  |  |  |  |  |  |
| CC(=O)O[C@@]12CO[C@@H]1C[C@H](O)[C@@]1(C)C(=O)[C@H](O)C3=C(C)[C@@H](OC(=O)[C@H](O)[C@@H](NC(=O)OC(C)(C)C)c4ccccc4)C[C@@](O)([C@@H](OC(=O)c4ccccc4)[C@H]21)C3(C)C [Docetaxel] | 0.8633 | 0.7451 | 0.6992 | 0.4852 | Sensitive (S+) |  |  |  |  |  |  | 0.0585 | −0.1811 | 0.0514 | −0.1468 | Sensitive (S+) |  |
| COc1cc([C@@H]2c3cc4c(cc3[C@@H](O[C@@H]3O[C@@H]5CO[C@@H](C)O[C@H]5[C@H](O)[C@H]3O)[C@H]3COC(=O)[C@H]23)OCO4)cc(OC)c1O [Etoposide] |  |  |  |  |  | 0.9372 | 0.6295 | 0.9862 | 0.5135 | Sensitive S+ | Sensitive (S+) | −0.2179 | −0.1141 | −0.1357 | −0.0050 | Sensitive (S++) | effectiveness on Circulating Tumour Cells under laboratory conditions ([3]; renal cancer CTCs): Sensitive S++ |
| CC(=O)O[C@H]1C(=O)[C@@]2(C)[C@H]([C@H](OC(=O)c3ccccc3)[C@]3(O)C[C@H](OC(=O)[C@H](O)[C@@H](NC(=O)c4ccccc4)c4ccccc4)C(C)=C1C3(C)C)[C@]1(OC(C)=O)CO[C@@H]1C[C@@H]2O [Paclitaxel] |  |  |  |  |  |  |  |  |  |  |  |  |  |  |  |  | effectiveness on Circulating Tumour Cells under laboratory conditions ([4]; GI cancer (Cholangio Carcinoma) blood sample): S+; Drug response score from blood sample, conc. 1 ([4]; conc. 1 of each drug as in Table 27, blood sample, t96h): 0.2346; Drug response score from blood sample, conc. 2 ([4]; conc. 2 of each drug as in Table 27, blood sample, t96h): 0.5329; Drug response score from blood sample, conc. 3 ([4]; conc. 3 of each drug as in Table 27, blood sample, t96h): 0.5298; Drug response score from blood sample, conc. 4 ([4]; conc. 4 of each drug as in Table 27, blood sample, t96h): 0.756 |
